Experimental data taken from PubChem BioAssay (NCI).
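Test compounds were applied to cells in 96-well plates for 48 hours at 5 doses. At the GI50, growth is halved. TGI: concentration producing complete growth inhibition.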

What was measured:
Assay in all cases: DTP human tumour cell line panel, 48 h
[1] = system: A549 NSCLC
[2] = system: MOLT-4 leukemia
[3] = system: MDA-N
[4] = system: SW-620 colon
[5] = system: OVCAR-3 ovarian
[6] = system: PC-3 prostate
[7] = system: K-562 leukemia
[8] = system: RXF 393 renal
[9] = system: RPMI-8226 leukemia
[10] = system: LOX IMVI melanoma
[11] = system: T-47D breast

SMILES	TGI [1]	TGI [2]	TGI [3]	TGI [4]	TGI [5]	TGI [6]	TGI [7]	TGI [8]	TGI [9]	TGI [10]	TGI [11]	GI50 [1]	GI50 [4]	GI50 [5]	GI50 [6]	GI50 [8]	GI50 [10]	GI50 [9]	GI50 [11]
Cc1c(Cc2ccccc2)n(C(C)OCCN(OC(=O)Oc2ccccc2)C(=O)Oc2ccccc2)c(=O)[nH]c1=O (centres undefined)	73.9 µM	46.3 µM	41.4 µM	41.7 µM	37.7 µM	58.9 µM	93.5 µM	30.1 µM	79.6 µM										
Cc1ccc(/C=C/C(=O)Oc2ccc(/C=C3\CCC/C(=C\c4ccc(OC(=O)/C=C/c5ccc(C)cc5)cc4)C3=O)cc2)cc1	> 100 µM	> 100 µM	> 100 µM	> 100 µM	> 100 µM	> 100 µM			> 100 µM	> 100 µM	> 100 µM								
COc1ccc(-n2c(SC(CN3CCOCC3)CN3CCCC3=O)nc3ccccc3c2=O)cc1 (centres undefined)	> 100 µM	> 100 µM	> 100 µM	> 100 µM	> 100 µM	> 100 µM	> 100 µM	> 100 µM	> 100 µM		> 100 µM								
COc1cccc2c1NC(=O)Cc1c-2[nH]c2ccccc12	> 100 µM	> 100 µM		> 100 µM	> 100 µM	> 100 µM	> 100 µM	> 100 µM	> 100 µM	> 100 µM	> 100 µM								
O=C1c2ccccc2C(=O)N1n1c(Cc2ccc(Cl)cc2)n[nH]c1=O	> 100 µM	> 100 µM	> 100 µM	> 100 µM	> 100 µM	> 100 µM	> 100 µM			> 100 µM	> 100 µM								
CCOC(=O)c1[nH]cc(C)c1-c1cccn1-c1ccc(Cl)cc1[N+](=O)[O-]	92.9 µM	46.4 µM	69.6 µM	> 100 µM	29.5 µM	64.9 µM	53.3 µM	33.5 µM		31.3 µM	> 100 µM								
CSc1cc(Cl)c(C)cc1S(=O)(=O)NC(=O)NNc1ccc(F)cc1	> 100 µM	> 100 µM	> 100 µM	> 100 µM	> 100 µM	> 100 µM	> 100 µM	> 100 µM		> 100 µM	> 100 µM								
C/C(=N\Nc1nc2cc(Cl)ccc2s1)c1ccccn1	> 43.7 µM	> 100 µM	> 100 µM	23.7 µM	7.11 µM	> 35.2 µM	> 100 µM		> 32.4 µM	13.5 µM	43.6 µM								
CCCCCCSc1nc(N)nc2nc[nH]c12	> 100 µM	> 100 µM		> 100 µM	> 100 µM		> 100 µM	> 93 µM	> 100 µM	> 100 µM									
O=C1/C(=C/c2ccc(Cl)cc2)Oc2cc(O)ccc21	91.7 µM	48.1 µM	> 100 µM	> 100 µM	96.1 µM	89.7 µM	38.5 µM	> 100 µM	> 100 µM		> 100 µM								
CN(C)CCNC(=O)c1cccc2ccc(-c3ccc(Br)cc3)nc12	4.29 µM	1.48 µM		5.9 µM	12.6 µM		9.2 µM	13.1 µM	5.93 µM	4.82 µM									
CC(=O)C(=O)NC1/C=C(C)\C=C/C(O)C/C=C(C)\C=C/C(O)CC2OC(=O)C1(C)C(=O)C2C (centres undefined)	> 100 µM	> 100 µM		> 100 µM	> 100 µM		> 100 µM	> 100 µM	98.9 µM	> 100 µM									
Nn1c(Nc2ccc(S(N)(=O)=O)cc2)nnc(/C=C/c2c(O)ccc3ccccc23)c1=O	92.4 µM	0.805 µM	42 µM	45.3 µM	42.8 µM	> 100 µM	34.5 µM		26.7 µM	27.1 µM	40.6 µM								
CC1(C)OC[C@H](C(=N)OCc2ccccc2)O1	> 100 µM	> 100 µM		> 100 µM	> 100 µM		> 100 µM	> 100 µM	> 100 µM										
CN1CCN(C(=O)CCC(=O)Nc2cc3c(c4ccccc24)-c2ccc4ccccc4c2C3)CC1	3.96 µM				3.22 µM	3.37 µM		3.45 µM		4.04 µM	3.57 µM								
Cc1nn(C(=O)c2ccccc2O)c2c1C(c1ccc(O)cc1O)SC(N)=N2 (centres undefined)	> 10 µM	> 10 µM	> 10 µM	> 10 µM	> 10 µM	> 10 µM	> 10 µM	> 10 µM	> 10 µM	> 10 µM									
O=c1ccc2ccc(CBr)cc2o1	30.1 µM	5.98 µM	15.1 µM	3.2 µM		> 100 µM	5.2 µM	3.47 µM		3.01 µM	5.76 µM								
COc1cc(CC(C)=O)cc(OC)c1	> 100 µM	73.2 µM	76.9 µM	> 100 µM	> 100 µM	> 100 µM	> 100 µM		> 100 µM		> 100 µM								
CN(c1ccccc1)S(=O)(=O)c1ccc([N+](=O)[O-])cc1	> 100 µM		> 100 µM	> 100 µM	> 100 µM	> 100 µM		> 100 µM	> 100 µM	> 100 µM	> 100 µM								
Cc1cc2c(c(C(=O)NCC(=O)N[C@@H](C)C(=O)OCc3ccccc3)c1)Oc1c(cc(C)cc1C(=O)NCC(=O)N[C@@H](C)C(=O)OCc1ccccc1)S2	> 100 µM	> 100 µM	> 100 µM	> 100 µM	> 100 µM	> 100 µM	> 100 µM	85.3 µM	> 100 µM		6.28 µM								
CCOC(=O)c1c(NS(=O)(=O)c2ccc(C)cc2)sc2c1CCCC2	> 100 µM	> 100 µM	> 100 µM		47.5 µM	> 100 µM	> 100 µM		45.9 µM		> 100 µM								
COc1cc(C2c3cc4c(cc3OC(NNC(N)=O)C2C)OCO4)cc(OC)c1OC (centres undefined)	> 100 µM	> 100 µM		> 100 µM		> 100 µM	2.82 µM	> 100 µM	> 58.1 µM	> 100 µM	> 100 µM								
N#Cc1c(N)oc(-c2ccc([N+](=O)[O-])cc2)c1C#N	> 100 µM		> 100 µM	> 100 µM		56.9 µM		> 100 µM	> 100 µM	> 100 µM	76.2 µM								

SMILES	TGI [1]	TGI [2]	TGI [3]	TGI [4]	TGI [5]	TGI [6]	TGI [7]	TGI [8]	TGI [9]	TGI [10]	TGI [11]	GI50 [1]	GI50 [4]	GI50 [5]	GI50 [6]	GI50 [8]	GI50 [10]	GI50 [9]	GI50 [11]
O=c1[nH]c(=O)c2ncn(-c3ccc([N+](=O)[O-])cn3)c2[nH]1	> 100 µM	> 100 µM		> 100 µM	> 100 µM	> 100 µM	> 100 µM	> 100 µM	> 100 µM	> 100 µM	> 100 µM								
Clc1cc(-c2ccccc2)nc(Nc2nc3ccccc3[nH]2)n1	> 100 µM	> 100 µM	38.7 µM	22.2 µM		> 100 µM	85.3 µM	19.1 µM	> 100 µM		> 100 µM								
COC1OCC(O)C(NC(=O)N(C)N=O)C1O (centres undefined)	> 100 µM	> 100 µM		> 100 µM	> 100 µM		> 100 µM	> 100 µM	> 100 µM	> 100 µM									
c1coc(-c2nccc3c2[nH]c2ccccc23)c1	> 100 µM	> 100 µM	> 100 µM	> 100 µM	> 100 µM	> 100 µM	> 100 µM	> 100 µM		> 100 µM	> 100 µM								
CC1=NN(C(=O)Cc2ccccc2)C(=O)/C1=C\c1ccc([N+](=O)[O-])cc1	> 100 µM	> 100 µM		> 100 µM	> 100 µM		> 100 µM	> 100 µM	> 100 µM	> 100 µM									
COc1ccc2c(c1)CC[C@@H]1C2CC[C@]2(C)C(=O)N(CCN(C)C)C(=O)CC12 (some centres undefined)	> 100 µM	> 100 µM	> 100 µM	> 100 µM	> 100 µM	> 100 µM	> 100 µM	> 100 µM			> 100 µM								
CN(C)C(=O)Oc1c(Br)cc(Br)cc1C(=O)OCc1ccccc1	> 100 µM	44.3 µM		> 100 µM	48 µM		> 90.2 µM	> 75.6 µM	52.4 µM	60.2 µM									
O=c1[nH]c2ccccc2c(O)c1Cc1ccccc1	> 100 µM	> 100 µM	> 100 µM	> 100 µM	> 100 µM	> 100 µM	> 100 µM	> 100 µM	> 100 µM	> 100 µM									
CN(C)CN1CSC(=S)N(CN(C)C)C1	> 100 µM	92.4 µM	> 100 µM	> 100 µM	> 100 µM	42.7 µM	> 100 µM	> 100 µM		> 100 µM	> 100 µM								
COC(C/C(=C/CO[Si](C(C)C)(C(C)C)C(C)C)C(=O)N(C(=O)OC(C)(C)C)c1ccccc1I)OC	> 100 µM	> 100 µM	> 100 µM	> 100 µM	> 100 µM	77.4 µM	> 100 µM		> 100 µM	49.8 µM	> 100 µM								
CN(C)Cc1c(O)ccc2c1c1c(n2C)C(=O)c2ccccc2C1=O	> 100 µM	> 100 µM		> 100 µM	48.4 µM	32.7 µM	> 100 µM	81.5 µM	> 100 µM	18.6 µM	> 100 µM								
Cn1c(-c2ccc(-c3cc(-c4cccs4)c(-c4cccs4)n3C)cc2)cc(-c2cccs2)c1-c1cccs1	> 100 µM	> 100 µM	> 100 µM	> 100 µM		> 100 µM	> 100 µM	> 100 µM	> 100 µM		> 100 µM								
Nc1nc(Cl)cc(OCC2(CO)CCCC2)n1	> 100 µM	> 100 µM	> 100 µM	> 100 µM	> 100 µM	> 100 µM	> 100 µM	> 100 µM	> 100 µM	> 100 µM									
O=c1cc(-c2ccccc2)[nH]c2ncccc12	> 100 µM	> 100 µM		> 100 µM	> 100 µM	> 27.9 µM	> 100 µM		> 100 µM	> 100 µM	> 100 µM								
CC[C@@]1(O)C[C@H](OC2CC(N(C)C)C(O)C(C)O2)c2c(cc3c(c2O)C(=O)c2c(O)ccc(O)c2C3=O)[C@H]1C(=O)OC (some centres undefined)	1.36 µM	0.192 µM		0.662 µM	0.924 µM		0.472 µM	0.258 µM	0.388 µM	0.772 µM									
CCC(C)(C)c1cc(O)c(C(C)(C)CC)cc1O	11.9 µM			6.89 µM	7.54 µM	13.2 µM		7.25 µM	9.09 µM	4.62 µM	19.5 µM	3.2 µM	2.35 µM	2.78 µM	3.43 µM	2.69 µM	2.1 µM	2.41 µM	4.56 µM
CC(C)=CC1C(C(=O)Oc2ccccc2C(C)C)C1(C)C (centres undefined)	> 100 µM		90 µM	66 µM	34.6 µM		83.8 µM	33.5 µM	48.2 µM	33.4 µM	50.3 µM								
COc1cc(C2S/C(=C/c3ccccc3)C(=O)N2Cc2ccccc2)cc(OC)c1OC (centres undefined)	> 100 µM	> 100 µM	52.6 µM			> 100 µM	> 100 µM		> 100 µM	> 100 µM	41.1 µM								
CC(=O)OCC1OC(N2C(=O)NC(=O)C3C=C4CCCCC4=CC32)CC1OC(C)=O (centres undefined)	> 100 µM	> 100 µM	> 100 µM	> 100 µM	> 100 µM	> 100 µM	> 100 µM		> 100 µM	> 100 µM	> 100 µM								
Nc1nc(NCCOCP(=O)(O)O)c([N+](=O)[O-])c(=O)[nH]1	> 100 µM	> 100 µM		> 100 µM	> 100 µM		> 100 µM	> 100 µM	> 100 µM	> 100 µM									
O=C1c2cc(I)ccc2N2CCN=C2N1Cc1ccccc1	> 100 µM	> 100 µM		> 100 µM	> 100 µM	> 100 µM	> 100 µM	49.4 µM	> 100 µM	> 100 µM	> 100 µM								
CCc1cc(C)cc2[n+]1CC=C2	78.6 µM			> 100 µM				> 100 µM		> 100 µM									
